Results from US20040096356A1, “Assay device for determining analytes in a liquid dairy product” (priority 1997, published 2004).

How the values were obtained:
receptor BlaR-CTD [1] = molecular target: T1, receptor BlaR-CTD (Bacillus licheniformis, UniProt P12287); test: Five minutes test: strip test for β-lactam antibiotics in milk using BlaR-CTD; assay type: binding; details: in 5 minutes; positive when first band is less intense than second band
T1 construct: the receptor BlaR-CTD is the carboxy-terminal region of BlaR
Description: (§1) According to a preferred embodiment of the invention an identifier is used which comprises a receptor sensitive to antibiotics having a β-lactam ring, which receptor is obtained from Bacillus licheniformis, such as the receptor BlaR or the receptor BlaR-CTD. The isolation and the peptide sequence of the protein BlaR are described in Y. Zhu et al., J. Bacteriol., 1137-1141 (1990); the receptor BlaR-CTD is the carboxy-terminal region of BlaR, whose isolation and peptide sequence are described in B. Joris et al., FEMS Microbiology Letters, 107-114 (1990).
(§2) This example illustrates the detection in milk of antibiotics having a β-lactam ring which are monitored by the health authorities. The test described in this example uses the receptor BlaR-CTD coupled with gold beads, which serve as labelling agents, and uses a support which is in the form of an assay device comprising a solid support on which membranes are fixed.
(§3) 3.79 ml of a solution of recognition agent BlaR-CTD having a concentration of 6.6 mg/ml are taken up in a sodium phosphate buffer, 20 mM pH 7. To this solution of BlaR-CTD are then added 41.71 ml of bicarbonate buffer (0.1 M sodium bicarbonate, pH 9) and 2 ml of a solution of N-hydroxysuccinimide 6-(biotinamido)caproic ester containing 2.23 mg/ml likewise of bicarbonate buffer. This solution is stirred gently on a LABINCO stirrer for tubes on a rotary axis (available from VEL, Belgium) at a rate of 2 revolutions/minute for 2 hours at ambient temperature and away from light. 2.5 ml of a solution of Tris buffer, 1 M pH 8 are incubated with the reaction mixture under the same conditions for 30 minutes. The solution thus obtained is dialysed against HNM buffer (Hepes 100 mM, pH 8, NaCl 100 mM, MgCl2 50 mM) for 24 hours. In this way a biotinylated BlaR-CTD solution is obtained which is diluted in HNM-BSA buffer (Hepes 500 mM, pH 8, NaCl 500 mM, MgCl2 250 mM, BSA 10 mg/ml) to a concentration of 250 μg of biotinylated BlaR-CTD per ml of buffer. This solution is stored at −20° C.
(§4) The biotinylated BlaR-CTD solution prepared in Example 3.1.1 is diluted 114.7 times with the HNM-BSA buffer (Hepes 500 mM, pH 8, NaCl 500 mM, MgCl2 250 mM, BSA 10 mg/ml). At room temperature, 22.5 parts by volume of this dilute biotinylated BlaR-CTD solution, 7.5 parts by volume of HNM-BSA buffer, 9.27 parts by volume of the gold particle suspension used to label the biotinylated BlaR-CTD and 6 parts by volume of reference gold particle suspension are mixed (see Example 3.1.4 below).
(§5) The first capture substance makes it possible to fix the BlaR-CTD coupled with the gold beads present in excess relative to the quantity of antibiotic present in the sample.
(§6) Assay devices containing membranes (2), (3) and (4) are used, assembled in accordance with the procedure described in Example 1.1. The membrane (3) of these devices carries on the proximal side the capture substance described in Example 32.1. and on the distal side the capture substance described in Example 3.2.2. The capture substances were deposited in accordance with the procedure described in Example 1.2.
Six samples of fresh milk are prepared, containing 0; 2; 4; 6; 8 and 10 ppb, repsectively, of cloxacillin. Each of these solutions is then analysed as follows.
(§7) An aliquot is taken of 200 μl of milk sample and 45.27 μl of solution prepared in Example 3.1.3, and is placed in a glass flask. This mixture is incubated at 47° C. for 3 minutes. An assay device is taken and is placed vertically in the glass flask such that the first end of the assay device is in contact with the mixture in such a way that the second end rests on the wall of the glass flask. The mixture is allowed to migrate over the assay device while the assembly is incubated at 47° C. for 2 minutes.
(§8) An intensity value ranging from 0 to 10 is awarded to the bands detected, the value 10 being given to the most intense band and the value 0 being given to the least intense band. On this scale, a value of 6 is awarded to the reference band. […]

receptor BlaR-CTD [2] = molecular target: T1, receptor BlaR-CTD; test: 3-minute rapid test: strip test for β-lactam antibiotics in milk using BlaR-CTD; assay type: binding; details: for Intensity 1st band: scale 0 to 10, reference band 6, 47° C., 1 min incubation + 2 min migration
Description: as §1, §2, §3, §4, §5, §6
7 samples of fresh milk are prepared, containing 0; 1; 2; 3; 4; 5 and 6 ppb, respectively, of penicillin G. Each of these solutions is then analysed as follows.
as §7, with “for 1 minute.” for “for 3 minutes.”, “mixture and” for “mixture in”, “such” for “such a way”
as §8

T1 sequence (P12287 340-601): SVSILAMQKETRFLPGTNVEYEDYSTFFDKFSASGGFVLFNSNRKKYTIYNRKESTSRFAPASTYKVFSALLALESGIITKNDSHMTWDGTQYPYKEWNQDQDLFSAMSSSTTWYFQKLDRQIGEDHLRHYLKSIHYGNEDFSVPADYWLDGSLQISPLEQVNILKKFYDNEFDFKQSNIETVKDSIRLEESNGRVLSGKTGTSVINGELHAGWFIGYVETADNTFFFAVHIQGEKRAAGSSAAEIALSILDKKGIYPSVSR

Structure (SMILES): CC1(C)S[C@@H]2[C@H](NC(=O)Cc3ccccc3)C(=O)N2[C@H]1C(=O)O [Penicillin G, penicillin G]
- lowest concentration detected in a milk sample (receptor BlaR-CTD [1]): 3 ppb
- Intensity 1st band (receptor BlaR-CTD [2]; 1 ppb penicillin G in fresh milk): 9
- Intensity 1st band (receptor BlaR-CTD [2]; 2 ppb penicillin G in fresh milk): 9
- Intensity 1st band (receptor BlaR-CTD [2]; 3 ppb penicillin G in fresh milk): 4
- Intensity 1st band (receptor BlaR-CTD [2]; 4 ppb penicillin G in fresh milk): 0
- Intensity 1st band (receptor BlaR-CTD [2]; 5 ppb penicillin G in fresh milk): 0
- Intensity 1st band (receptor BlaR-CTD [2]; 6 ppb penicillin G in fresh milk): 0
- lowest concentration detected in a milk sample (receptor BlaR-CTD [2]; in 3 minutes, positive when first band is less intense than second band): less than 4 ppb
